According to article PMC6255783, “A biophysical study on the mechanism of interactions of DOX or PTX with α-lactalbumin as a delivery carrier” (Scientific Reports, 2018):

Molecular target: T1, α-Lac (α-lactalbumin) (Bos taurus, UniProt P00711)
T1 construct: gene LALBA; native mature protein from bovine milk, type III, calcium depleted (apo form, EDTA buffer); signal peptide absent
T1 sequence (P00711 20-142): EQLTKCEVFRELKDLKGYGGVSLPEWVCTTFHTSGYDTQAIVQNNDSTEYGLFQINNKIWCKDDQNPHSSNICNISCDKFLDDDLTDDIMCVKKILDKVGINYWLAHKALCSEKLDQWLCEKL
Assay: isothermal titration calorimetry
Format: binding
Settings: 20 mM Tris pH 7, 25 °C, 3.5 mM EDTA (apo form), unreliable (authors urge care: no clear pre- or post-transition, heat does not level off)
Text: isothermal titration calorimetry on α-Lac (α-lactalbumin)

| K (M^-1) (up to 3% ethanol, n = 1.8) | K (M^-1) (n = 0.9) | Compound |
| --- | --- | --- |
| (14 ± 4.82) × 10^3 M^-1 |  | CC(=O)O[C@H]1C(=O)[C@@]2(C)[C@H]([C@H](OC(=O)c3ccccc3)[C@]3(O)C[C@H](OC(=O)[C@H](O)[C@@H](NC(=O)c4ccccc4)c4ccccc4)C(C)=C1C3(C)C)[C@]1(OC(C)=O)CO[C@@H]1C[C@@H]2O [PTX, paclitaxel] |
|  | (6.7 ± 1.61) × 10^3 M^-1 | COc1cccc2c1C(=O)c1c(O)c3c(c(O)c1C2=O)C[C@@](O)(C(=O)CO)C[C@@H]3O[C@H]1C[C@H](N)[C@H](O)[C@H](C)O1 [DOX, doxorubicin] |
